Results published in US7668586B2, “In vivo multiphoton diagnostic detection and imaging of a neurodegenerative disease” (Cornell Research Foundation, Inc., priority 2000, dated 2010).
Values belong to the compound of their own block, whether it stands above or below them.

How the values were obtained:
[1] = Fluorescent angiography after tail vein injection; conditions: injected into tail vein, at least 20 minutes prior to imaging
amyloid plaques = amyloid plaques (Homo sapiens, UniProt P05067); test: In vivo multiphoton imaging of thioflavine S-positive amyloid; design: species or system Tg2576 mouse; conditions: dilute solution applied to brain, 750 nm 2-photon excitation
Chain of amyloid plaques (P05067 672-711 limits assumed): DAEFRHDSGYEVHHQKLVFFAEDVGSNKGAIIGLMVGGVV

pial arteriole = test: Pial vessel reactivity, closed cranial window, vessel diameter measurement; conditions: 14-month-old Tg+ (four out of five, outlier excluded); ACh 10 and 25 μM, SNP 0.5 μM superfused

crossing of the blood-brain barrier [1]: did not cross the blood-brain barrier
Compound: O=C1OC2(c3ccc(O)cc3Oc3cc(O)ccc32)c2ccccc21 [fluorescein]

Compound: Thioflavine S
depth to the surface of the cortex at which plaques were visualized (amyloid plaques): up to 150 μm

Compound: CC(=O)OCC[N+](C)(C)C [ACh, Acetylcholine]
vessel dilation relative to control (non-transgenic) animals (pial arteriole): about 25%
